Laboratory results from ChEMBL document CHEMBL1201861, “Genomics of Drug Sensitity in Cancer screening data, Wellcome Trust Sanger Institute”.

Experiments:
Assay in all cases: cells
Assay type in all cases: functional, cell-based
Conditions in all cases: Homo sapiens
COLO-800 = test system: COLO-800;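 also: growth inhibition of COLO-800 cells, read out with a cell viability assay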
CTB-1 = test system: CTB-1
CTV-1 = test system: CTV-1;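 also: growth inhibition of the cell line, read out with a cell viability assay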
DMS-114 = test system: DMS-114
DSH1 = test system: DSH1;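 also: growth inhibition of human DSH1 cells, measured with a cell viability readout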
EM-2 = test system: EM-2;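 also: growth inhibition of EM-2 cells, read out with a cell viability assay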
ES1 = test system: ES1;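 also: growth inhibition of ES1 cells, read out with a cell viability assay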
EOL1 = test system: EOL1;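 also: growth inhibition of EoL-1 cells, read out by a cell viability assay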
GB-1 = test system: GB-1;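 also: growth of GB-1 cells judged by a viability assay, IC50 marks the concentration inhibiting growth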
GR-ST = test system: GR-ST
HC-1 = test system: HC-1;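 also: growth inhibition of HC-1 cells measured by a cell viability assay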
HCC1187 = test system: HCC1187;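 also: growth inhibition of HCC1187 cells, read out with a cell viability assay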
HCC2218 = test system: HCC2218;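 also: cell viability assay read-out, with IC50 given as the concentration that inhibits growth of the cell line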
HD-MY-Z = test system: HD-MY-Z;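 also: growth inhibition of HD-MY-Z cells, read out with a cell viability assay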
HDLM-2 = test system: HDLM-2;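 also: cell viability assay measuring suppression of HDLM-2 proliferation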
HOP-62 = test system: HOP-62;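 also: cell growth inhibition determined with a viability assay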
KGN = test system: KGN;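 also: growth inhibition of KGN cells, read out with a cell viability assay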
KINGS-1 = test system: KINGS-1;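 also: cell viability assay measuring suppression of KINGS-1 cell growth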
KNS-42 = test system: KNS-42;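 also: growth inhibition of KNS-42 cells, read out with a cell viability assay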
KNS-81-FD = test system: KNS-81-FD;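 also: growth inhibition of KNS-81-FD cells, read out with a cell viability assay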
KY821 = test system: KY821;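 also: growth inhibition of human KY821 cells, read out by a cell viability assay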
L-428 = test system: L-428
LAMA-84 = test system: LAMA-84;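 also: growth inhibition of LAMA-84 cells, read out with a cell viability assay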
LB1047-RCC = test system: LB1047-RCC;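 also: inhibition of cell growth, determined with a cell viability assay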
LB2241-RCC = test system: LB2241-RCC;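 also: cell viability assay measuring how strongly the cultured human renal carcinoma line is prevented from growing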
LS-1034 = test system: LS-1034
MC116 = test system: MC116;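 also: growth inhibition of MC116 cells, read out with a cell viability assay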
MFM-223 = test system: MFM-223
MSTO-211H = test system: MSTO-211H
Mo = test system: Mo
NB10 = test system: NB10;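 also: growth inhibition of NB10 cells, read out by a cell viability assay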
NB13 = test system: NB13;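 also: cell viability readout measuring growth inhibition of human NB13 cells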
NCI-H1355 = test system: NCI-H1355;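 also: growth inhibition of human NCI-H1355 cells, read out by a cell viability assay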
NCI-H1395 = test system: NCI-H1395;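 also: cell viability assay read-out quantifying reduced proliferation of human NCI-H1395 cells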
NCI-H1650 = test system: NCI-H1650;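 also: growth inhibition of human NCI-H1650 cells measured by a cell viability assay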
NCI-H226 = test system: NCI-H226;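 also: cell viability read-out used to gauge growth inhibition of the cells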
NCI-H69 = test system: NCI-H69;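 also: growth inhibition of the cell line, read out with a cell viability assay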
NCI-H720 = test system: NCI-H720;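 also: growth inhibition of human NCI-H720 cells determined by a cell viability assay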
NCI-H747 = test system: NCI-H747;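 also: growth inhibition of human NCI-H747 cells, read out by a cell viability assay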
NCI-H82 = test system: NCI-H82;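 also: growth inhibition of NCI-H82 cells, measured with a cell viability readout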
NEC8 = test system: NEC8;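 also: growth inhibition of human NEC8 cells, read out by a cell viability assay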
RH-1 = test system: RH-1;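 also: growth inhibition of human RH-1 cells, read out with a cell viability assay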
RKO = test system: RKO;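 also: growth inhibition of human RKO cells, read out with a cell viability assay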
SF-126 = test system: SF-126;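 also: growth inhibition of human SF126 cells, read out with a cell viability assay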
SF-539 = test system: SF-539;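 also: Read-out is a cell viability assay, with IC50 reflecting inhibition of cell growth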
SJSA-1 = test system: SJSA-1;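 also: growth inhibition of human SJSA-1 cells, read out through a cell viability measurement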
SK-LMS-1 = test system: SK-LMS-1;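 also: growth inhibition of human SK-LMS-1 cells, read out with a cell viability assay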
SK-N-DZ = test system: SK-N-DZ;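 also: growth inhibition of the cancer cell line, read out through a viability assay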
SNB-75 = test system: SNB-75;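 also: cell viability assay measuring growth inhibition of human SNB-75 cells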
SNU-C2B = test system: SNU-C2B;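 also: cell viability readout used to measure compound-driven suppression of SNU-C2B cell proliferation, IC50 marking half-maximal growth inhibition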
A101D = test system: A101D;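 also: growth inhibition of the cell line, measured with a viability assay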
A388 = test system: A388;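 also: growth inhibition of human A388 cells, read out with a cell viability assay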
ALL-PO = test system: ALL-PO;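 also: growth inhibition of ALL-PO cells, read out by a cell viability assay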
AM-38 = test system: AM-38;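 also: growth inhibition of AM-38 cells of human origin, read out by a cell viability assay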
BB30-HNC = test system: BB30-HNC;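 also: growth inhibition of the cultured cell line, read out by a cell viability assay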
Becker = test system: Becker;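 also: growth inhibition of Becker cells, read out with a cell viability assay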
TE-12 = test system: TE-12
TE-8 = test system: TE-8
TE-9 = test system: TE-9
TGBC1TKB = test system: TGBC1TKB
TGBC24TKB = test system: TGBC24TKB
U-266 = test system: U-266
CAS-1 = test system: CAS-1
CGTH-W-1 = test system: CGTH-W-1
COLO-320-HSR = test system: COLO-320-HSR
COLO-668 = test system: COLO-668

## CCNC(=O)c1noc(-c2cc(C(C)C)c(O)cc2O)c1-c1ccc(CN2CCOCC2)cc1 [LUMINESPIB]
COLO-800
  IC50: > 256 nM
CTB-1
  IC50: 135 nM
CTV-1
  IC50: 41.2 nM
DMS-114
  IC50: > 256 nM
DSH1
  IC50: 62.7 nM
EM-2
  IC50: > 256 nM
ES1
  IC50: 2.66 nM
EOL1
  IC50: > 256 nM
GB-1
  IC50: 21.9 nM
GR-ST
  IC50: 102 nM
HC-1
  IC50: 40.7 nM
HCC1187
  IC50: > 256 nM
HCC2218
  IC50: 100 nM
HD-MY-Z
  IC50: 144 nM
HDLM-2
  IC50: 41.1 nM
HOP-62
  IC50: 15.4 nM
KGN
  IC50: 7.03 nM
KINGS-1
  IC50: 24.3 nM
KNS-42
  IC50: > 256 nM
KNS-81-FD
  IC50: 69.2 nM
KY821
  IC50: > 256 nM
L-428
  IC50: 77 nM
LAMA-84
  IC50: 41.7 nM
LB1047-RCC
  IC50: 50.3 nM
LB2241-RCC
  IC50: 36.4 nM
LS-1034
  IC50: 41.9 nM
MC116
  IC50: > 256 nM
MFM-223
  IC50: > 256 nM
MSTO-211H
  IC50: > 256 nM
Mo
  IC50: > 256 nM
NB10
  IC50: 237 nM
NB13
  IC50: 42.3 nM
NCI-H1355
  IC50: 24 nM
NCI-H1395
  IC50: > 256 nM
NCI-H1650
  IC50: 16.5 nM
NCI-H226
  IC50: 59.9 nM
NCI-H69
  IC50: > 256 nM
NCI-H720
  IC50: > 256 nM
NCI-H747
  IC50: 45.7 nM
NCI-H82
  IC50: > 256 nM
NEC8
  IC50: > 256 nM
RH-1
  IC50: 62.3 nM
RKO
  IC50: 8.26 nM
SF-126
  IC50: 50.1 nM
SF-539
  IC50: > 256 nM
SJSA-1
  IC50: 20.4 nM
SK-LMS-1
  IC50: 4.58 nM
SK-N-DZ
  IC50: 179 nM
SNB-75
  IC50: 24.7 nM
SNU-C2B
  IC50: 12.7 nM
A101D
  IC50: 19.9 nM
A388
  IC50: 21.2 nM
ALL-PO
  IC50: 17.3 nM
AM-38
  IC50: 13 nM
BB30-HNC
  IC50: 9.52 nM
Becker
  IC50: 15.1 nM
TE-12
  IC50: 17.8 nM
TE-8
  IC50: 2.37 nM
TE-9
  IC50: 42.4 nM
TGBC1TKB
  IC50: 210 nM
TGBC24TKB
  IC50: > 256 nM
U-266
  IC50: 145 nM
CAS-1
  IC50: 120 nM
CGTH-W-1
  IC50: 23.3 nM
COLO-320-HSR
  IC50: 185 nM
COLO-668
  IC50: 79.8 nM

## CO[C@@]12[C@H](COC(N)=O)C3=C(C(=O)C(C)=C(N)C3=O)N1C[C@@H]1N[C@@H]12 [MITOMYCIN]
COLO-800
  IC50: 78.7 nM
CTB-1
  IC50: 306 nM
CTV-1
  IC50: 18.7 nM
DMS-114
  IC50: 2090 nM
DSH1
  IC50: 96.5 nM
EM-2
  IC50: 1030 nM
ES1
  IC50: < 62.5 nM
EOL1
  IC50: 162 nM
GB-1
  IC50: 452 nM
GR-ST
  IC50: 121 nM
HC-1
  IC50: 157 nM
HCC1187
  IC50: 8920 nM
HCC2218
  IC50: 589 nM
HD-MY-Z
  IC50: 640 nM
HDLM-2
  IC50: 1460 nM
HOP-62
  IC50: 20.2 nM
KGN
  IC50: 207 nM
KINGS-1
  IC50: 8610 nM
KNS-42
  IC50: 1090 nM
KNS-81-FD
  IC50: 1590 nM
KY821
  IC50: 1650 nM
L-428
  IC50: 1160 nM
LAMA-84
  IC50: 642 nM
LB1047-RCC
  IC50: < 62.5 nM
LB2241-RCC
  IC50: < 62.5 nM
LS-1034
  IC50: 30.2 nM
MC116
  IC50: 1420 nM
MFM-223
  IC50: 10400 nM
MSTO-211H
  IC50: 2820 nM
Mo
  IC50: 8910 nM
NB10
  IC50: 81.7 nM
NB13
  IC50: 646 nM
NCI-H1355
  IC50: 117 nM
NCI-H1395
  IC50: 2230 nM
NCI-H1650
  IC50: 283 nM
NCI-H226
  IC50: 777 nM
NCI-H69
  IC50: 1680 nM
NCI-H720
  IC50: 1540 nM
NCI-H747
  IC50: 412 nM
NCI-H82
  IC50: 2800 nM
NEC8
  IC50: 187 nM
RH-1
  IC50: 49.6 nM
RKO
  IC50: 125 nM
SF-126
  IC50: 1410 nM
SF-539
  IC50: 127 nM
SJSA-1
  IC50: 132 nM
SK-LMS-1
  IC50: 439 nM
SK-N-DZ
  IC50: 2390 nM
SNB-75
  IC50: 303 nM
SNU-C2B
  IC50: 295 nM
A101D
  IC50: 257 nM
A388
  IC50: 207 nM
ALL-PO
  IC50: 31 nM
AM-38
  IC50: 221 nM
BB30-HNC
  IC50: 30.6 nM
Becker
  IC50: 862 nM
TE-12
  IC50: 190 nM
TE-8
  IC50: 35.9 nM
TE-9
  IC50: 500 nM
TGBC1TKB
  IC50: 1210 nM
TGBC24TKB
  IC50: 710 nM
U-266
  IC50: 866 nM
CAS-1
  IC50: 3380 nM
CGTH-W-1
  IC50: 38.7 nM
COLO-320-HSR
  IC50: 1080 nM
COLO-668
  IC50: < 62.5 nM
